This passage reports Activity results from ChEMBL document CHEMBL1155497, “Double stranded DNA discrimination by di-pyrene modified gamma-cyclodextrin” (Bioorg Med Chem Lett, 2010).

Assay type in all cases: nucleic-acid assay
Experiment [1] relates to Nucleic Acid. The experiment in a line: Binding affinity to single strand DNA assessed as increase in fluorescence intensity at 0.1 uM by fluorescence spectroscopy technique.
In experiment [2] the test system is Nucleic Acid. The experiment in a line: Binding affinity to double strand DNA assessed as increase in fluorescence intensity at 0.1 uM by fluorescence spectroscopy technique.
The test system of experiment [3] is Nucleic Acid. The experiment in a line: Binding affinity to single strand DNA assessed as increase in fluorescence intensity at 0.6 uM by fluorescence spectroscopy technique.
For experiment [4], the system named is Nucleic Acid. The experiment is described as follows: Binding affinity to double strand DNA assessed as increase in fluorescence intensity at 0.6 uM by fluorescence spectroscopy technique.
Experiment [5] deals with Nucleic Acid. The experiment is described as follows: Binding affinity to double strand DNA assessed as increase in fluorescence intensity using 0.00075 uM of DNA at 0.3 uM by fluorescence spectroscopy technique.
Experiment [6] concerns Nucleic Acid. The experiment in a line: Binding affinity to double strand DNA assessed as increase in fluorescence intensity using > 0.00075 uM of DNA at 0.3 uM by fluorescence spectroscopy technique.
Experiment [7] has as its system Nucleic Acid. The experiment is described as follows: Binding affinity to single strand DNA assessed as increase in fluorescence intensity at 0.3 uM by fluorescence spectroscopy technique.
The test system of experiment [8] is Nucleic Acid. The experiment in a line: Binding affinity to single strand DNA assessed as increase in fluorescence intensity using > 0.00075 uM of DNA by fluorescence spectroscopy technique.
The subject of experiment [9] is Nucleic Acid. The experiment in a line: Binding affinity to double strand DNA assessed as increase in fluorescence intensity by fluorescence spectroscopy technique.
Experiment [10] deals with Nucleic Acid. The experiment in a line: Binding affinity to single strand DNA assessed as increase in fluorescence intensity using 0.00075 uM of DNA by fluorescence spectroscopy technique.

Each structure is given as a SMILES string. Calls of active or inactive are those of the source. The calls are words filed in the database; no cut-off is given here.

As to `O=C(CSC[C@H]1O[C@@H]2O[C@@H]3[C@@H](CO)C[C@H](O[C@H]4[C@H](O)[C@@H](O)[C@@H](O[C@H]5[C@H](O)[C@@H](O)[C@@H](O[C@H]6[C@H](O)[C@@H](O)[C@@H](O[C@H]7[C@H](O)[C@@H](O)[C@@H](O[C@H]8[C@H](O)[C@@H](O)[C@@H](O[C@H]9[C@H](O)[C@@H](O)[C@@H](O[C@H]1[C@H](O)[C@H]2O)O[C@@H]9CO)O[C@@H]8CSCC(=O)NCCOCCOCCOCc1ccc2ccc8cccc9ccc1c2c89)O[C@@H]7CO)O[C@@H]6CO)O[C@@H]5CO)O[C@@H]4CO)[C@H](O)[C@H]3O)NCCOCCOCCOCc1ccc2ccc3cccc4ccc1c2c34`, the result in the experiment on Nucleic Acid [1], in the experiment on Nucleic Acid [2], with Nucleic Acid [3] and in the experiment with Nucleic Acid [4] was inactive.
Take `O=C(NCCOCCOCCOCc1ccc2ccc3cccc4ccc1c2c34)SC[C@H]1O[C@@H]2O[C@H]3[C@H](O)[C@@H](O)[C@@H](O[C@H]4[C@H](O)[C@@H](O)[C@@H](O[C@@H]5[C@@H](CO)C[C@H](O[C@H]6[C@H](O)[C@@H](O)[C@@H](O[C@H]7[C@H](O)[C@@H](O)[C@@H](O[C@H]8[C@H](O)[C@@H](O)[C@@H](O[C@H]9[C@H](O)[C@@H](O)[C@@H](O[C@H]1[C@H](O)[C@H]2O)O[C@@H]9CO)O[C@@H]8CO)O[C@@H]7CO)O[C@@H]6CSC(=O)NCCOCCOCCOCc1ccc2ccc6cccc7ccc1c2c67)[C@H](O)[C@H]5O)O[C@@H]4CO)O[C@@H]3CO`: the outcome in the experiment on Nucleic Acid [5] was Active. Besides, the outcome with Nucleic Acid [6] and in the experiment on Nucleic Acid [7] was inactive.
With `CCCN(CCCN(C)C)C1=CC(Cc2sc3ccccc3[n+]2C)c2ccccc2N1c1ccccc1` (stereo not given), the outcome with Nucleic Acid [8], in the experiment with Nucleic Acid [9] and in the experiment with Nucleic Acid [10] was Active.
